In PMC9186362, “Design and biological evaluation of substituted 5,7-dihydro-6H-indolo[2,3-c]quinolin-6-one as novel selective Haspin inhibitors” (Journal of Enzyme Inhibition and Medicinal Chemistry, 2022):

Key:
Assay in all cases: SelectScreen ZLYTE
Assay type in all cases: biochemical
PRKCQ (PKC theta) = PRKCQ (PKC theta) (Homo sapiens, UniProt Q04759); conditions: ATP Km, read-out: Percentage of inhibition
Summary of the method: (§1)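 Percent inhibition values come from a one-concentration (1 μM) profiling run covering a wide set of kinases.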

NEK4 = molecular target: T1, NEK4 (Homo sapiens, UniProt P51957); conditions: ATP Km, read-out: Percentage of inhibition
T1 construct: purchased Life Technologies
Summary of the method: as §1

PIM3 = molecular target: T2, PIM3 (Homo sapiens, UniProt Q86V86); conditions: ATP Km, read-out: Percentage of inhibition
T2 construct: purchased Life Technologies
Summary of the method: as §1

FGFR3 = molecular target: T3, FGFR3 (Homo sapiens, UniProt P22607); conditions: ATP Km, read-out: Percentage of inhibition
T3 construct: purchased Life Technologies
Summary of the method: as §1

FYN = molecular target: T4, FYN (Homo sapiens, UniProt P06241); conditions: ATP Km, read-out: Percentage of inhibition
T4 construct: purchased Life Technologies (SelectScreen Whole Panel)
Summary of the method: as §1

GSK3B (GSK3 beta) = molecular target: T5, GSK3B (GSK3 beta) (Homo sapiens, UniProt P49841); conditions: ATP Km, read-out: Percentage of inhibition
T5 construct: purchased Life Technologies (SelectScreen service)
Summary of the method: as §1

FGR = molecular target: T6, FGR (Homo sapiens, UniProt P09769); conditions: ATP Km, read-out: Percentage of inhibition
T6 construct: purchased Life Technologies (SelectScreen service)
Summary of the method: as §1

RPS6KB2 (p70S6Kb) = molecular target: T7, RPS6KB2 (p70S6Kb) (Homo sapiens, UniProt Q9UBS0); conditions: ATP Km, read-out: Percentage of inhibition
T7 construct: purchased Life Technologies (SelectScreen)
Summary of the method: as §1

CAMK2D (CaMKII delta) = molecular target: T8, CAMK2D (CaMKII delta) (Homo sapiens, UniProt Q13557); conditions: ATP Km, read-out: Percentage of inhibition
T8 construct: purchased Life Technologies (SelectScreen Whole Panel)
Summary of the method: as §1

AMPK (A2/B2/G3) = AMPK (A2/B2/G3) (Homo sapiens, UniProt P54646); conditions: ATP Km, read-out: Percentage of inhibition
Summary of the method: as §1

PAK3 = molecular target: T9, PAK3 (Homo sapiens, UniProt O75914); conditions: ATP Km, read-out: Percentage of inhibition
T9 construct: purchased Life Technologies
Summary of the method: as §1

STK4 (MST1) = molecular target: T10, STK4 (MST1) (Homo sapiens, UniProt Q13043); conditions: ATP Km, read-out: Percentage of inhibition
T10 construct: purchased Life Technologies (SelectScreen Whole Panel)
Summary of the method: as §1

ADRBK2 (GRK3) = molecular target: T11, ADRBK2 (GRK3) (Homo sapiens, UniProt P35626); conditions: ATP Km, read-out: Percentage of inhibition
T11 construct: purchased Life Technologies (SelectScreen Whole Panel)
Summary of the method: as §1

MET (cMet) Y1235D = molecular target: T12, MET (cMet) Y1235D (Homo sapiens, UniProt P08581, Y1235D); conditions: ATP Km, read-out: Percentage of inhibition
T12 construct: purchased Life Technologies
Summary of the method: as §1

CLK1 = molecular target: T13, CLK1 (Homo sapiens, UniProt P49759); conditions: ATP Km, read-out: Percentage of inhibition
T13 construct: purchased Life Technologies (SelectScreen Whole Panel)
Summary of the method: as §1

DYRK1B = molecular target: T14, DYRK1B (Homo sapiens, UniProt Q9Y463); conditions: ATP Km, read-out: Percentage of inhibition
T14 construct: purchased Life Technologies
Summary of the method: as §1

RAF1 (cRAF) Y340D Y341D = molecular target: T15, RAF1 (cRAF) Y340D Y341D (Homo sapiens, UniProt P04049, Y340D/Y341D); conditions: ATP 100 µM, read-out: Percentage of inhibition
T15 construct: purchased Life Technologies
Summary of the method: as §1

SGK2 = SGK2 (Homo sapiens, UniProt Q9HBY8); conditions: ATP Km, read-out: Percentage of inhibition
Summary of the method: as §1

TBK1 = molecular target: T16, TBK1 (Homo sapiens, UniProt Q9UHD2); conditions: ATP Km, read-out: Percentage of inhibition
T16 construct: purchased Life Technologies (SelectScreen Whole Panel service)
Summary of the method: as §1

CSNK1G1 (CK1 gamma 1) = CSNK1G1 (CK1 gamma 1) (Homo sapiens, UniProt Q9HCP0); conditions: ATP Km, read-out: Percentage of inhibition
Summary of the method: as §1

INSRR (IRR) = molecular target: T17, INSRR (IRR) (Homo sapiens, UniProt P14616); conditions: ATP Km, read-out: Percentage of inhibition
T17 construct: purchased Life Technologies (SelectScreen Whole Panel)
Summary of the method: as §1

ABL1 E255K = molecular target: T18, ABL1 E255K (Homo sapiens, UniProt P00519, E255K); conditions: ATP Km, read-out: Percentage of inhibition
T18 construct: purchased Life Technologies
Summary of the method: as §1

PRKACA (PKA) = molecular target: T19, PRKACA (PKA) (Homo sapiens, UniProt P17612); conditions: ATP Km, read-out: Percentage of inhibition
T19 construct: purchased Life Technologies (SelectScreen)
Summary of the method: as §1

AMPK (A2/B1/G3) = molecular target: T20, AMPK (A2/B1/G3) (Homo sapiens, UniProt P54646); conditions: ATP Km, read-out: Percentage of inhibition
T20 construct: purchased Life Technologies (SelectScreen Whole Panel service)
Summary of the method: as §1

NTRK1 (TRKA) = NTRK1 (TRKA) (Homo sapiens, UniProt P04629); conditions: ATP Km, read-out: Percentage of inhibition
Summary of the method: as §1

PHKG1 = molecular target: T21, PHKG1 (Homo sapiens, UniProt Q16816); conditions: ATP Km, read-out: Percentage of inhibition
T21 construct: purchased Life Technologies
Summary of the method: as §1

NEK2 = molecular target: T22, NEK2 (Homo sapiens, UniProt P51955); conditions: ATP Km, read-out: Percentage of inhibition
T22 construct: purchased Life Technologies (SelectScreen Whole Panel)
Summary of the method: as §1

MAPKAPK3 = molecular target: T23, MAPKAPK3 (Homo sapiens, UniProt Q16644); conditions: ATP Km, read-out: Percentage of inhibition
T23 construct: purchased Life Technologies
Summary of the method: as §1

LCK = LCK (Homo sapiens, UniProt P06239); conditions: ATP Km, read-out: Percentage of inhibition
Summary of the method: as §1

FLT3 D835Y = molecular target: T24, FLT3 D835Y (Homo sapiens, UniProt P36888, D835Y); conditions: ATP Km, read-out: Percentage of inhibition
T24 construct: purchased Life Technologies (SelectScreen Whole Panel)
Summary of the method: as §1

TEK (TIE2) Y897S = molecular target: T25, TEK (TIE2) Y897S (Homo sapiens, UniProt Q02763, Y897S); conditions: ATP Km, read-out: Percentage of inhibition
T25 construct: purchased Life Technologies (SelectScreen Whole Panel)
Summary of the method: as §1

MARK2 = molecular target: T26, MARK2 (Homo sapiens, UniProt Q7KZI7); conditions: ATP Km, read-out: Percentage of inhibition
T26 construct: purchased Life Technologies (SelectScreen Whole Panel service)
Summary of the method: as §1

MAPK8 (JNK1) = molecular target: T27, MAPK8 (JNK1) (Homo sapiens, UniProt P45983); conditions: ATP 10 µM, read-out: Percentage of inhibition
T27 construct: purchased Life Technologies (SelectScreen Whole Panel service)
Summary of the method: as §1

CDC42 BPB (MRCKB) = molecular target: T28, CDC42 BPB (MRCKB) (Homo sapiens, UniProt Q9Y5S2); conditions: ATP Km, read-out: Percentage of inhibition
T28 construct: purchased Life Technologies (SelectScreen Whole Panel service)
Summary of the method: as §1

IRAK4 = IRAK4 (Homo sapiens, UniProt Q9NWZ3); conditions: ATP Km, read-out: Percentage of inhibition
Summary of the method: as §1

SRPK1 = SRPK1 (Homo sapiens, UniProt Q96SB4); conditions: ATP Km, read-out: Percentage of inhibition
Summary of the method: as §1

PLK3 = molecular target: T29, PLK3 (Homo sapiens, UniProt Q9H4B4); conditions: ATP Km, read-out: Percentage of inhibition
T29 construct: purchased Life Technologies (SelectScreen service)
Summary of the method: as §1

ADRBK1 (GRK2) = molecular target: T30, ADRBK1 (GRK2) (Homo sapiens, UniProt P25098); conditions: ATP Km, read-out: Percentage of inhibition
T30 construct: purchased Life Technologies (SelectScreen Whole Panel)
Summary of the method: as §1

Sequence of LCK (P06239 whole entry): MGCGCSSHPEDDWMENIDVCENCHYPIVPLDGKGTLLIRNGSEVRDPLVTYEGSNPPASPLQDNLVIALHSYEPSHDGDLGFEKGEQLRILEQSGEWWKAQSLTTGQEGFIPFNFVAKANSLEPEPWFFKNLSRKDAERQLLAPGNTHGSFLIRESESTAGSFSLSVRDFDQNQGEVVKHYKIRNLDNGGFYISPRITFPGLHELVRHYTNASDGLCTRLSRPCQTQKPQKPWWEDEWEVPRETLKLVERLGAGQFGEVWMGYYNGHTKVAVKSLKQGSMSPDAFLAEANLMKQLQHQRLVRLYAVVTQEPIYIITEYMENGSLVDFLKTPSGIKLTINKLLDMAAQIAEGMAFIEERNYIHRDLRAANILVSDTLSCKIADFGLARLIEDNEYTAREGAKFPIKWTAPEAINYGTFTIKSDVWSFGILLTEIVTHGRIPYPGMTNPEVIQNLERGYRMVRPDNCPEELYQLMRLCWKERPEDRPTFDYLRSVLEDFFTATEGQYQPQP
T18 sequence (P00519 whole entry E255K): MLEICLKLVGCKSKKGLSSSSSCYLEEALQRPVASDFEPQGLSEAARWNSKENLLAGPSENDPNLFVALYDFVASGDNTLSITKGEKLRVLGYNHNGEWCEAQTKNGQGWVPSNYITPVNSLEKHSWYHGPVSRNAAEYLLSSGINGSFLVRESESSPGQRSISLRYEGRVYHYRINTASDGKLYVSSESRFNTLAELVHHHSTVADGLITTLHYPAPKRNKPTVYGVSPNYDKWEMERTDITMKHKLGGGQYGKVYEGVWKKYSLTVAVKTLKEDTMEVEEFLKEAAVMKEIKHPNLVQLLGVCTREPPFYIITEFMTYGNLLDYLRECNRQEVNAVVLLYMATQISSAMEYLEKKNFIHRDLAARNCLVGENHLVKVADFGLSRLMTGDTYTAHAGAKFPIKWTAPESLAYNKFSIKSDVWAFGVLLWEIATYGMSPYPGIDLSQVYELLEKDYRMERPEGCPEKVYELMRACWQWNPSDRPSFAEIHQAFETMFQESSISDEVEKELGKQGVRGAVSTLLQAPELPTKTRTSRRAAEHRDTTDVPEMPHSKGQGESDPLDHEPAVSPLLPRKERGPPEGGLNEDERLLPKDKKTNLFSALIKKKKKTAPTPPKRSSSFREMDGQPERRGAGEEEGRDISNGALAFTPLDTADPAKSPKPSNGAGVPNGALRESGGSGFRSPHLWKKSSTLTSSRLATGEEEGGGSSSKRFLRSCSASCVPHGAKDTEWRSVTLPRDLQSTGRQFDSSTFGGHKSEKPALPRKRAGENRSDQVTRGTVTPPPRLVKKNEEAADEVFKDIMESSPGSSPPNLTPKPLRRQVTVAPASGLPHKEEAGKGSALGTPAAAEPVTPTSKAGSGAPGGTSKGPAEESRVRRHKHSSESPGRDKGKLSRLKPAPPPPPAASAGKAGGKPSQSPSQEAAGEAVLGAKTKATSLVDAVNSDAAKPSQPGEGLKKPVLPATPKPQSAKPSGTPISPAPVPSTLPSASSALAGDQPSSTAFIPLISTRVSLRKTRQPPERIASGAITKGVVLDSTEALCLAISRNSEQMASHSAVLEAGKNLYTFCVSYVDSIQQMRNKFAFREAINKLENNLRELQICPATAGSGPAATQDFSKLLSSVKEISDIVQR
T10 sequence (Q13043 whole entry): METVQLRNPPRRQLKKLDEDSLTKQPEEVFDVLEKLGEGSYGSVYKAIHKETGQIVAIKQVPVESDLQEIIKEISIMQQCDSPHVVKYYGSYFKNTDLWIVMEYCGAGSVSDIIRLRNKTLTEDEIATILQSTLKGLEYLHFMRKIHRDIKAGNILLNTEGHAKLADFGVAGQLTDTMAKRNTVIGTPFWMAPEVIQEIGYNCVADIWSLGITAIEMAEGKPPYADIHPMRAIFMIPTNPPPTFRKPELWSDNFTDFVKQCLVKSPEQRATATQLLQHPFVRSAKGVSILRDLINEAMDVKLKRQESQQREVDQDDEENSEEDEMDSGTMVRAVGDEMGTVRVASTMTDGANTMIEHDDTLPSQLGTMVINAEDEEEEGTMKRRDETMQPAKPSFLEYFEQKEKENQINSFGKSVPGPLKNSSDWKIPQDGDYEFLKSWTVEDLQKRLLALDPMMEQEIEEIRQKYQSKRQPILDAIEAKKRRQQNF
Sequence of IRAK4 (Q9NWZ3 whole entry): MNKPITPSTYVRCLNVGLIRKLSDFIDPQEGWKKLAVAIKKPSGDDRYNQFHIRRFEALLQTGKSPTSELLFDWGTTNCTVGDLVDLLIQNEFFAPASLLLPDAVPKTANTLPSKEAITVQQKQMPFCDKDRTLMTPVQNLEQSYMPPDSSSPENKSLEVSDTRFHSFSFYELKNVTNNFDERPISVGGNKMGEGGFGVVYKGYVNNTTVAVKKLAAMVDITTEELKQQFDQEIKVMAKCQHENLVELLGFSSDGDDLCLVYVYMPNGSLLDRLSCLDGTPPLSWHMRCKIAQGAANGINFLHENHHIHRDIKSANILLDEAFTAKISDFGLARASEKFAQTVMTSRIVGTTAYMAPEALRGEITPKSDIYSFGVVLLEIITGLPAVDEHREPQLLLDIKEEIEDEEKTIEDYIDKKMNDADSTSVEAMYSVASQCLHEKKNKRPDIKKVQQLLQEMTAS
T7 sequence (Q9UBS0 whole entry): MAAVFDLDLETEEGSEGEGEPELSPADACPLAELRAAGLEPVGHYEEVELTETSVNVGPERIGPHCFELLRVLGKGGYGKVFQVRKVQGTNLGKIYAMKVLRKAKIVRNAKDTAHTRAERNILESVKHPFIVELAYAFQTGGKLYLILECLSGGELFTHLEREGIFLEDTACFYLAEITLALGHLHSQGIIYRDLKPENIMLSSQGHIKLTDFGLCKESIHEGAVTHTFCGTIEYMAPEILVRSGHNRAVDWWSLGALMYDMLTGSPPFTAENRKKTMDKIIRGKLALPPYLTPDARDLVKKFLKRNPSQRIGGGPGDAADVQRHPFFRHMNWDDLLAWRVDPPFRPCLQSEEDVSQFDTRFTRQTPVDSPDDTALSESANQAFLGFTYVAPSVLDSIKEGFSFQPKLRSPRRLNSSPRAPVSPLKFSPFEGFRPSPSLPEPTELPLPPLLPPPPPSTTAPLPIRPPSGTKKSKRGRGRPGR
T22 sequence (P51955 whole entry): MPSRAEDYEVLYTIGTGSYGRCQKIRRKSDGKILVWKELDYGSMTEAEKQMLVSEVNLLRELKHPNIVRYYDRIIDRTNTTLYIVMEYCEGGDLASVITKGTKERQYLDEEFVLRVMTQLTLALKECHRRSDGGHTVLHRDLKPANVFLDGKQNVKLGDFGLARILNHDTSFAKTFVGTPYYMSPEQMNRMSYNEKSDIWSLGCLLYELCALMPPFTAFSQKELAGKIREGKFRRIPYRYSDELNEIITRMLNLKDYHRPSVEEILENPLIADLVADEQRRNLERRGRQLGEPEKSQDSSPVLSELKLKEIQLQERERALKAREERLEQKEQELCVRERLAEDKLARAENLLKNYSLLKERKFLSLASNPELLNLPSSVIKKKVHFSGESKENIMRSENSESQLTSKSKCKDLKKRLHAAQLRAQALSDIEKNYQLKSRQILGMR
T15 sequence (P04049 whole entry Y340D/Y341D): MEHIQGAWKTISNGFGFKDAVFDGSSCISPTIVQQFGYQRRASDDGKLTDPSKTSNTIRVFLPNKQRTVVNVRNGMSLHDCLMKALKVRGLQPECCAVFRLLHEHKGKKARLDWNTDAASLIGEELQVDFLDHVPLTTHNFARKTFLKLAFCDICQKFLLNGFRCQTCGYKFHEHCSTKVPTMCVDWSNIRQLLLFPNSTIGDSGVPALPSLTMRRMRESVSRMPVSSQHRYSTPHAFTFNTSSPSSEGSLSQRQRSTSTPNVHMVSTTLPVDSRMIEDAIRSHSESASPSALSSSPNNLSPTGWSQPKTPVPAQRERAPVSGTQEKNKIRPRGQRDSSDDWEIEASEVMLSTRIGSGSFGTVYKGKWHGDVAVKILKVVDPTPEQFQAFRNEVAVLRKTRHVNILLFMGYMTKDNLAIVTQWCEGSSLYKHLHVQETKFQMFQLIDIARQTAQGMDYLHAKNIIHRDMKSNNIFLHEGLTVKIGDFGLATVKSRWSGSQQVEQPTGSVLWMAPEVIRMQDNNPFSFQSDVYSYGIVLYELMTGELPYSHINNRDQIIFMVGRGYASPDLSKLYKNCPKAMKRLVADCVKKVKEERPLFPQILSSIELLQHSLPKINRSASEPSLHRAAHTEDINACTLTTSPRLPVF
Sequence of NTRK1 (TRKA) (P04629 33-796): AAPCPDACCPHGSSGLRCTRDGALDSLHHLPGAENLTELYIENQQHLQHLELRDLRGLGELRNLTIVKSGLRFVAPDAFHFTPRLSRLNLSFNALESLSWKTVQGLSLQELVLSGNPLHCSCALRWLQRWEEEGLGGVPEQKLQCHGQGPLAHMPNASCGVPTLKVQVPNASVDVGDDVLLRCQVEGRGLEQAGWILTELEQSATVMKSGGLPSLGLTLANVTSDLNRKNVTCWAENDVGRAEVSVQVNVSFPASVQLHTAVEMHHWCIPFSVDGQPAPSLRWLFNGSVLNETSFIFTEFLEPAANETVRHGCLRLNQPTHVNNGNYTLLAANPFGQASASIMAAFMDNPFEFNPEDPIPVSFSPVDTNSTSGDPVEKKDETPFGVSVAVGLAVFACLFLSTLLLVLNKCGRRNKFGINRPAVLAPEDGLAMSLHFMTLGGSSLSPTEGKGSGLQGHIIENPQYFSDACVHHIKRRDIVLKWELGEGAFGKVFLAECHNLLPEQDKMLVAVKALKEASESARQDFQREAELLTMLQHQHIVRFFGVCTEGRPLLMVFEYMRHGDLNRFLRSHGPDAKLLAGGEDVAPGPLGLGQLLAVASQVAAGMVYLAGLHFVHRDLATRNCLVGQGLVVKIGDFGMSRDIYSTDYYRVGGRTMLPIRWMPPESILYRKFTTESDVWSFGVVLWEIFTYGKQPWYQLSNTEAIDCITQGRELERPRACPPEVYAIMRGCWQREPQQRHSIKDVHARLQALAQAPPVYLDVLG

`COc1ccc2[nH]c3c(=O)[nH]c4ccc(O)cc4c3c2c1` [Compound 55, 2-Hydroxy-10-methoxy-5,7-dihydro-6H-indolo[2,3-c]quinolin-6-one] was tested, and the inhibition at 1 µM (PRKCQ (PKC theta)) was 7%, the inhibition at 1 µM (NEK4) was 28% and the inhibition at 1 µM (PIM3) was 33%. The inhibition at 1 µM (FGFR3) was 3%, the inhibition at 1 µM (FYN) was 49% and the inhibition at 1 µM (GSK3B (GSK3 beta)) was 81%. It also gave an inhibition at 1 µM (FGR) of 81%, an inhibition at 1 µM (RPS6KB2 (p70S6Kb)) of 8% and an inhibition at 1 µM (CAMK2D (CaMKII delta)) of 50%. The inhibition at 1 µM (AMPK (A2/B2/G3)) was 57%, the inhibition at 1 µM (PAK3) was 5% and the inhibition at 1 µM (STK4 (MST1)) was 99%. It also gave an inhibition at 1 µM (ADRBK2 (GRK3)) of 0%, an inhibition at 1 µM (MET (cMet) Y1235D) of 2% and an inhibition at 1 µM (CLK1) of 98%. For the same molecule, the inhibition at 1 µM (DYRK1B) was 96%, the inhibition at 1 µM (RAF1 (cRAF) Y340D Y341D) was 94% and the inhibition at 1 µM (SGK2) was 19%. It also gave an inhibition at 1 µM (TBK1) of 49%, an inhibition at 1 µM (CSNK1G1 (CK1 gamma 1)) of 20% and an inhibition at 1 µM (INSRR (IRR)) of 52%. It also gave an inhibition at 1 µM (ABL1 E255K) of 39%, an inhibition at 1 µM (PRKACA (PKA)) of 8% and an inhibition at 1 µM (AMPK (A2/B1/G3)) of 42%. The inhibition at 1 µM (NTRK1 (TRKA)) was 69%, the inhibition at 1 µM (PHKG1) was 32% and the inhibition at 1 µM (NEK2) was -11%. The inhibition at 1 µM (MAPKAPK3) was 3%, the inhibition at 1 µM (LCK) was 67% and the inhibition at 1 µM (FLT3 D835Y) was 100%. The inhibition at 1 µM (TEK (TIE2) Y897S) was 1%, the inhibition at 1 µM (MARK2) was 12% and the inhibition at 1 µM (MAPK8 (JNK1)) was 15%. The inhibition at 1 µM (CDC42 BPB (MRCKB)) was 10%, the inhibition at 1 µM (IRAK4) was 61% and the inhibition at 1 µM (SRPK1) was 7%. The inhibition at 1 µM (PLK3) was 25% and the inhibition at 1 µM (ADRBK1 (GRK2)) was -3%.
